Test results as given in paper PMC8836147, “Design, Synthesis and Antifungal/Nematicidal Activity of Novel 1,2,4-Oxadiazole Derivatives Containing Amide Fragments” (International Journal of Molecular Sciences, 2022).

Tests used:
S. sclerotiorum = test: In vitro mycelium growth inhibition test; assay type: cell-based; conditions: Sclerotinia sclerotiorum; 50 μg/mL; mycelial growth; mean ± SD of three replicates; read-out: Inhibition Rate (%) S. sclerotiorum
Method: (§1) B. cinerea and S. scleotiorum were kindly provided by the Department of Pesticides, College of Plant Protection, Nanjing Agricultural University (Nanjing, China). All compounds were evaluated for mycelium growth inhibition tests against the two plant pathogenic fungi mentioned in previous reports. These two fungi were inoculated on potato dextrose agar (PDA) plates and were grown in biochemical incubators at 25 ± 1 °C for 2–4 days. The new mycelium was used to determine the antifungal activity. The target compounds were dissolved in 100 µL DMF, and they were then added into the PDA media to make the concentration 50 µg/mL. Mycelia dishes of about 5 mm in diameter were cut from the culture medium. Mycelium were picked up with a sterile inoculation needle, and the sample was inoculated in the middle of a PDA plate in a sterile environment. Afterwards, a preliminary screening of fungal activity was performed. […] Each test was carried out three times. The radial growth of the fungal colonies was gauged and recorded when the diameters of the blank control mycelia reached 5.0–5.5 cm. […] The final data were analyzed using SPSS v.25.0 (IBM, New York, NY, USA). The following formula was used to calculate the fungi inhibition rate. Inhibition rate (%) = [(Mycelium diameter of negative control − Mycelium diameter of treatment)/(Mycelium diameter of negative control − 0.5)] × 100%(1)

B. cinerea = test: In vitro mycelium growth inhibition test; assay type: cell-based; conditions: Botrytis cinerea; 50 μg/mL; mycelial growth; mean ± SD of three replicates; read-out: Inhibition Rate (%) B. cinerea
Method: as §1

A. besseyi = test: microbe, parasite or virus in culture; conditions: Aphelenchoides besseyi, 48 h, read-out: Corrected Mortality Rate ± SD (%) A. besseyi
From the text: (§2) M. incognita (parasitic on tomato plants), A. besseyi (potato dextrose agar–Botrytis cinerea breeding), B. xylophilus (potato dextrose agar–Botrytis cinerea breeding), and C. elegans (nematode growth medium–inactivated Escherichia coli OP50 cultivation) were provided by the Fine Chemical Research and Development Center of Guizhou University (Guizhou, China). The methodology used for the nematocidal bioassays of these target compounds was modified in the light of the conventional methods reported in the previously published literature. The nematicidal activity of the target compounds against four nematodes was determined using 48-well biochemical culture dishes. All of the compounds were dissolved with 100 μL DMF and were diluted with 1% Tween-80 to obtain 200 and 50 μg/mL concentrations for the bioassays. Fosthiazate and tioxazafen were used as positive controls at the same concentrations, and a negative control group was prepared without compounds using the same methodology. An amount of 10 µL of nematode suspension (about 50 nematodes) and 300 µL of the trial solution were added to corresponding hole, and each treatment was set to three repetitions. All of the 48-well plates were placed in a biochemical incubator at 27 °C for dark light culture. […] Corrected mortality (%) = [(mortality of treatment % − mortality of negative control %)/(1 − mortality of negative control %)] × 100%(3)

C. elegans = test: microbe, parasite or virus in culture; conditions: 48 h; for mortality at 50 µg/mL / mortality at 200 µg/mL: Caenorhabditis elegans, read-out: Corrected Mortality Rate ± SD (%) C. elegans
From the text: as §2

B. xylophilus = test: microbe, parasite or virus in culture; conditions: Bursaphelenchus xylophilus, 48 h, read-out: Corrected Mortality Rate ± SD (%) B. xylophilus
From the text: as §2

M. incognita = test: microbe, parasite or virus in culture; conditions: Meloidogyne incognita, 48 h, read-out: Corrected Mortality Rate ± SD (%) M. incognita
From the text: as §2

Row | SMILES | inhibition at 50 µg/mL (S. sclerotiorum) [%] | inhibition at 50 µg/mL (B. cinerea) [%] | mortality at 50 µg/mL (A. besseyi) [%] | mortality at 200 µg/mL (A. besseyi) [%] | mortality at 50 µg/mL (C. elegans) [%] | mortality at 200 µg/mL (C. elegans) [%] | mortality at 50 µg/mL (B. xylophilus) [%] | mortality at 200 µg/mL (B. xylophilus) [%] | mortality at 50 µg/mL (M. incognita) [%] | mortality at 200 µg/mL (M. incognita) [%] | Corrected Mortality Rate ± SD (%) C. elegans (C. elegans; 50 µg/mL) [%] | Corrected Mortality Rate ± SD (%) C. elegans (C. elegans; 200 µg/mL) [%]
1 | O=C(NCCc1ncc(C(F)(F)F)cc1Cl)c1nc(-c2ccccc2)no1 [Compound F2, N-(2-(3-chloro-5-(trifluoromethyl)pyridin-2-yl)ethyl)-3-phenyl-1,2,4-oxadiazole-5-carboxamide] | 48.6 ± 1.6 | 23.6 ± 0.6 | 0 | 15.1 ± 1.6 | 10.3 ± 1.4 | 46.7 ± 2.6 | 0 | 5.5 ± 1.6 | 7.4 ± 3.2 | 42.6 ± 3.6 |  | 
2 | O=C(Nc1ccc(Cl)cc1Cl)c1nc(-c2ccccc2)no1 [Compound F4, N-(2,4-dichlorophenyl)-3-phenyl-1,2,4-oxadiazole-5-carboxamide] | 31.2 ± 0.7 | 20.9 ± 0.1 | 0 | 11.7 ± 1.4 | 71.4 ± 2.2 | 98.4 ± 2.3 | 0 | 25.3 ± 1.7 | 5.9 ± 1.3 | 23.2 ± 1.4 |  | 
3 | Cc1ccc(-c2noc(C(=O)NCCc3ccccn3)n2)cc1 [Compound F5, N -(2-(pyridin-2-yl)ethyl)-3-(p-tolyl)-1,2,4-oxadiazole-5-carboxamide] | 56.3 ± 1.2 | 24.9 ± 1.6 | 0 | 22.5 ± 3.2 | 67.9 ± 2.3 | 94.6 ± 1.7 | 0 | 8.1 ± 2.2 | 3.5 ± 1.3 | 35 ± 2.2 |  | 
4 | Cc1ccc(-c2noc(C(=O)NCCc3ncc(C(F)(F)F)cc3Cl)n2)cc1 [Compound F6, N-(2-(3-chloro-5-(trifluoromethyl)pyridin-2-yl)ethyl)-3-(p-tolyl)-1,2,4-oxadiazole-5-carboxamide] | 56 ± 1.4 | 22.9 ± 1.1 | 0 | 29.4 ± 2.3 | 100 | 100 | 0 | 11.6 ± 2.1 | 7.9 ± 2.2 | 44.6 ± 3.8 | 100.0 | 100.0
5 | Cc1ccc(-c2noc(C(=O)NCc3ccc(F)cc3F)n2)cc1 [Compound F7, N-(2,4-difluorobenzyl)-3-(p-tolyl)-1,2,4-oxadiazole-5-carboxamide] | 56.4 ± 0.1 | 46.4 ± 0.8 | 0 | 12.2 ± 2.1 | 68.2 ± 2.3 | 91.9 ± 2.5 | 0 | 28.1 ± 2.4 | 5.3 ± 1.1 | 24.9 ± 3.2 |  | 
6 | Cc1ccc(-c2noc(C(=O)Nc3ccc(Cl)cc3Cl)n2)cc1 [Compound F8, N-(2,4-dichlorophenyl)-3-(p-tolyl)-1,2,4-oxadiazole-5-carboxamide] | 21.1 ± 1.7 | 22.7 ± 1.3 | 0 | 6.1 ± 1.2 | 47.6 ± 1.7 | 77.6 ± 1.2 | 0 | 18.1 ± 1.2 | 4.9 ± 2.1 | 23.9 ± 3.3 |  | 
7 | O=C(NCCc1ncc(C(F)(F)F)cc1Cl)c1nc(-c2ccc(Cl)cc2)no1 [Compound F10, N-(2-(3-chloro-5-(trifluoromethyl)pyridin-2-yl)ethyl)-3-(4-chlorophenyl)-1,2,4-oxadiazole-5-carboxamide] | 48.6 ± 1.2 | 24.2 ± 1.7 | 0 | 23.6 ± 2.2 | 69.3 ± 1.8 | 100 | 0 | 12.1 ± 1.7 | 0 | 15.8 ± 3.5 |  | 
8 | O=C(NCc1ccc(F)cc1F)c1nc(-c2ccc(Cl)cc2)no1 [Compound F11, 3-(4-chlorophenyl)-N-(2,4-difluorobenzyl)-1,2,4-oxadiazole-5-carboxamide] | 44.9 ± 0.9 | 44.2 ± 1.2 | 0 | 19.8 ± 2.1 | 10.6 ± 1.3 | 73.6 ± 1.7 | 0 | 23.2 ± 2.1 | 24.8 ± 2.2 | 93.2 ± 2.1 |  | 
9 | O=C(Nc1ccc(Cl)cc1Cl)c1nc(-c2ccc(Cl)cc2)no1 [Compound F12, 3-(4-chlorophenyl)-N-(2,4-dichlorophenyl)-1,2,4-oxadiazole-5-carboxamide] | 24.8 ± 1.4 | 29.1 ± 1.4 | 0 | 18.8 ± 1.1 | 8.6 ± 1.6 | 47.6 ± 1.2 | 0 | 20.8 ± 2.5 | 13.8 ± 2.3 | 54.8 ± 2.5 |  | 
10 | O=C(NCCc1ccccn1)c1nc(-c2cccs2)no1 [Compound F13, N -(2-(pyridin-2-yl)ethyl)-3-(thiophen-2-yl)-1,2,4-oxadiazole-5-carboxamide] | 41.1 ± 0.1 | 27.3 ± 0.4 | 0 | 21.7 ± 2.4 | 70.4 ± 2.6 | 100 | 0 | 9.1 ± 1.5 | 0 | 11.6 ± 1.1 |  | 
11 | O=C(NCCc1ccccn1)c1nc(-c2ccc(Br)nc2)no1 [Compound F17] | 10.1 ± 1.2 | 27.6 ± 1.4 | 0 | 20.2 ± 1.2 | 54.2 ± 3.1 | 89.7 ± 1.5 | 0 | 14.1 ± 1.9 | 0 | 33.5 ± 1.4 |  | 
12 | O=C(NCCc1ncc(C(F)(F)F)cc1Cl)c1nc(-c2ccc(Br)nc2)no1 [Compound F18] | 34.9 ± 1.1 | 55.9 ± 1.3 | 0 | 23 ± 2.3 | 53.6 ± 2.4 | 90 ± 2.7 | 0 | 15.1 ± 1.2 | 0 | 36.7 ± 2.1 |  | 
13 | O=C(NCc1ccc(F)cc1F)c1nc(-c2ccc(Br)nc2)no1 [Compound F19] | 35.8 ± 0.8 | 42.2 ± 0.2 | 0 | 23.5 ± 2.6 | 64.1 ± 1.2 | 93.5 ± 2.6 | 0 | 30.7 ± 1.1 | 7.9 ± 1.2 | 30.7 ± 1.1 |  | 
14 | O=C(Nc1ccc(Cl)cc1Cl)c1nc(-c2ccc(Br)nc2)no1 [Compound F20] | 13.8 ± 0.5 | 55.8 ± 0.1 | 0 | 26.4 ± 2.5 | 81.4 ± 1.5 | 100 | 0 | 41.2 ± 1.3 | 8.6 ± 2.2 | 41.2 ± 1.3 |  | 
15 | CCOP(=O)(SC(C)CC)N1CCSC1=O (centres unmarked) [Fosthiazate, fosthiazate, reference compound] |  |  | 6.1 ± 3.1 | 38.4 ± 1.9 | 100 | 100 | 38.8 ± 1.3 | 72.4 ± 1.9 | 91.4 ± 2.5 | 100 |  | 
16 | c1ccc(-c2noc(-c3cccs3)n2)cc1 [Tioxazafen, tioxazafen, reference compound] |  |  | 8.8 ± 2.4 | 61.4 ± 1.7 | 90.4 ± 0.7 | 100 | 0 | 13.5 ± 1.2 | 12.6 ± 3.2 | 23.9 ± 3.3 |  | 
